# Experimental data from US6797500B2, “Genes involved in cyclododecanone degradation pathway” (E. I. du Pont de Nemours and Company, priority 1999, dated 2004).
# Assays:
# Rhodococcus ruber SC1 = assay: Growth of Rhodococcus ruber SC1 on cyclic ketones as sole carbon and energy source; type: cell-based; settings: for Growth of Rhodococcus ruber SC1: cyclic ketone as sole carbon and energy source
# Experimental: Synthetic S12 medium was used to establish enrichment. S12 medium contains the following: 10 mM ammonium sulfate, 50 mM potassium phosphate buffer (pH 7.0), 2 mM MgCl2, 0.7 mM CaCl2, 50 μM MnCl2, 1 μM FeCl3, 1 μM […], 1.72 μM CuSO4, 2.53 μM CoCl2, 2.42 μM […], and 0.0001% FeSO4. The carbon sources were added directly to the S12 medium and the bacteria were grown in sealed culture flasks.
# S12 agar was used to test isolates that utilize compounds as the sole source of carbon and energy. S12 agar was prepared by adding 1.5% Noble agar (DIFCO) to S12 medium. Bacteria growing on S12 agar were supplied with volatile compounds such as cyclododecanone by sprinkling solids of the volatile compound on the interior of the petri dish lid or 5 μl of other volatile liquid as vapor. The petri dish was sealed with parafilm and incubated with the lid on the bottom.
# Rhodococcus ruber SC1 isolated from cyclododecanone (C12 cyclic ketone) enrichment culture was also tested for growth on cyclic ketones of different carbon numbers as sole carbon and energy source (Table 3). It grows well on cyclopentadecanone (C15 cyclic ketone), cyclotridecanone (C13 cyclic ketone), cyclododecanone (C12 cyclic ketone) and cycloundecanone (C11 cyclic ketone).
# [1] = tested on: monooxygenase and esterase on the S8C; assay: Production of different chain length hydroxy acids from cyclic ketones by recombinant E. coli cosmid clone S8C (GC/MS); type: cell-based, Escherichia coli; settings: cyclic ketone substrate 250 mg/L
# Experimental: Transformed XL1-Blue MR cells were grown in M9 medium with 0.4% glucose as sole carbon source. Substrate for conversion was added at early log phase (OD=0.2) and cells were allowed to grow at 30° C. for 20 additional hours. Cells were then frozen and thawed once, centrifuged, and supernatant was filtered through 0.2 μm filters. Filtrate was prepared for GC/MS analysis as described below.
# Filtrate was first acidified to pH 2 using concentrated HCl. The acidified sample was extracted twice with methylene chloride or ethyl acetate. The extracts were combined and dried by adding anhydrous magnesium sulfate. Magnesium sulfate was then removed by filteration using Whatman 3MM filter paper and the remaining solvent in the filtrate was evaporated under a gentle stream of nitrogen. The dried residues were resuspended in 0.5 mL of methylene chloride as underivatized samples or derivatized with 0.5 mL of BSTFA [bis (trimethylsilyl) trifluoroacetamide] silylation reagent (SUPELCO, Bellefonte, Pa.). The GC/MS analysis was performed using a Hewlett Packard 5989B MS Engine GC/MS instrument. Samples were injected onto a 30 meter MDN-5S capillary column (SUPELCO, 0.5 μm film thickness) for separation. GC/MS analysis was conducted using electron impact ionization (70 eV).
# Example 8 explores whether the cyclic substrates could be expanded to cyclic ketones of different chain length and whether corresponding hydroxy acids could be produced. S8C was grown as described above except that different cyclic ketones were added. Cyclohexanone (C6), cycloheptanone (C7), cyclooctanone (C8), cyclodecanone (C10), cycloundecanone (C11), cyclododecanone (C12), cyclotridecanone (C13) and cyclopentadecanone (C15) were added as substrates at 250 mg/L concentration. Identification of the corresponding hydroxy acids produced was performed by GC/MS analysis as described above. Large amount of corresponding hydroxy acids were detected from S8C grown in the presence of C11, C12 and C13 cyclic ketones. Medium level of 15-hydroxy acid was detected from C15 cyclic ketone grown cells. Small amount of hydroxy acids was detected from cells grown on C6 and C10 cyclic ketones. […] The substrate range of the monooxygenase and esterase on the S8C appeared to favor long chain cyclic ketones (C>10). This correlated well with the growth substrate range ([…]) of the Rhodococcus ruber SC1. The ability of Rhodococcus ruber SC1 to grow on cyclic ketones of C11-C15 was likely due to the relatively broad substrate specificity of the single set of monooxygenase and esterase encoded on S8C clone (Table 3). It is possible that mixture of the large cyclic ketones may be used as substrates in a biotransformation to produce a mixture of long chain hydroxy acids or diacids for certain applications.
SMILES,Growth of Rhodococcus ruber SC1 on cyclic ketone (in words) (Rhodococcus ruber SC1),Growth of Rhodococcus ruber SC1 (Rhodococcus ruber SC1),Corresponding Hydroxy Acid Produced by E. coli Cosmids [1],Corresponding hydroxy acid detected (in words) [1]
"O=C1CCCCCCCCCCCCCC1 [C15, cyclopentadecanone]",grows well,+,+,Medium level
"O=C1CCCCC1 [C6, cyclohexanone]",does not grow,−,+/−,Small amount
"O=C1CCCCCCCCCCCC1 [C13, cyclotridecanone]",grows well,+,++,Large amount
"O=C1CCCCCC1 [C7, cycloheptanone]",does not grow,−,−,No hydroxy acid was detected
"O=C1CCCCCCCCCC1 [C11, cycloundecanone]",grows well,+,++,Large amount
"O=C1CCCCCCCCC1 [C10, cyclodecanone]",grows moderately well,+,+/−,Small amount
"O=C1CCCCCCC1 [C8, cyclooctanone]",does not grow,−,−,No hydroxy acid was detected
"O=C1CCCCCCCCCCC1 [C12, cyclododecanone]",grows well,+,++,Large amount
